Measured values: US20060069067A1, “Combination of an aromatase inhibitor with a bisphosphonate” (priority 2002, published 2006)
Values belong to the compound of their own block, whether it stands above or below them.

Assays:
Type in all cases: in vivo, rat
letrozole-treated rats [1] = test: pQCT monitoring of bone loss in the proximal tibia metaphysis of rats given daily oral letrozole
Procedure: (§1) It was investigated whether bone loss induced in rats by either ovariectomy (OVX) or the aromatase inhibitor letrozole (Let) could be prevented by the bisphosphonate zoledronic acid (Zol).
(§2) Material and Methods: Adult, skeletally mature, 8-month-old female Wistar rats were assigned to the following treatment groups […]: Sham (vehicle), OVX, Let-treated, OVX +Zol and Let+Zol. Zol was injected into the tail vein as a single dose of 0.8, 4 or 20 μg/kg 3 days before OVX or before initiating daily oral dosing of Let (1 mg/kg) for 24 weeks. Changes in total and cancellous bone mineral density (BMD) and cortical thickness in the proximal tibia metaphysis were monitored non-invasively by peripheral quantitative computed tomography (pQCT) at 0, 2, 4, 8, 12, 16, 20 and 24 weeks.

letrozole-treated rats [2] = test: Compression test of the 5th lumbar vertebral body after letrozole administration
Procedure: as §2
(§3) Both tibiae, femora and lumbar vertebrae L1-L6 were harvested at necropsy in order to carry out biomechanical testing.
(§4) Mechanical properties of the 5th lumbar vertebral body were evaluated in compression after removal of the epiphyseal ends, posterior pedicle arch and spinous process on a 4 mm segment with piano-parallel ends.

OVX rats [3] = test: pQCT monitoring of bone loss in the proximal tibia metaphysis of ovariectomized rats
Procedure: as §1, §2

OVX rats [4] = test: Compression test of the 5th lumbar vertebral body after OVX; settings: single iv 0.8, 4 or 20 μg/kg
Procedure: as §2, §3, §4

[5] = daily oral letrozole 1 mg/kg, at 24 weeks, P<0.01 vs sham
[6] = letrozole-treated rats, 4 μg/kg iv
[7] = letrozole-treated rats, highest dose (20 μg/kg iv), P<0.01 vs letrozole, NS vs sham

change in cancellous bone mineral density (cancellous bone loss) (letrozole-treated rats [1]; [5]): −26% | change in mean cortical thickness (letrozole-treated rats [1]; [5]): −21% | change in total BMD (letrozole-treated rats [1]; [5]): −13% | ultimate bone strength of 5th lumbar vertebral body (letrozole-treated rats [2]; daily oral letrozole 1 mg/kg for 24 weeks, NS): decreased
SMILES: N#Cc1ccc(C(c2ccc(C#N)cc2)n2cncn2)cc1 [letrozole, 4-[α-(4-cyanophenyl)-1-(1,2,4-triazolyl)methyl]-benzonitrile]

SMILES: O=P(O)(O)C(O)(Cn1ccnc1)P(=O)(O)O [zoledronic acid, 2-(imidazol-1yl)-1-hydroxyethane-1,1-diphosphonic acid]
duration of full protection against cancellous bone loss (OVX rats [3]; highest dose (20 μg/kg iv)): 20 weeks | duration of full protection of total BMD (NS vs sham) (OVX rats [3]; highest dose (20 μg/kg iv)): 24 week | protection of cortical thickness (NS vs sham at all time points) (OVX rats [3]; highest dose (20 μg/kg iv), 24-week study): fully protective for the full duration of the study | cancellous bone at 24 weeks (OVX rats [3]; highest dose (20 μg/kg iv), 24 weeks, NS vs sham): mild cancellous bone loss was visible | time for which cancellous bone loss was delayed (marginally but significantly) (OVX rats [3]; single iv 0.8 μg/kg): 12 weeks | protective effect on mean cortical thickness (OVX rats [3]; single iv 0.8 μg/kg, at 2 weeks, P<0.05 vs OVX): marginal protective effect | time for which cancellous bone mineral density was significantly better than in OVX controls (OVX rats [3]; single iv 4 μg/kg): 24 weeks | time for which cortical thickness was significantly better than in OVX controls (OVX rats [3]; single iv 4 μg/kg): 12 weeks | time for which cancellous bone mineral density was significantly better than in OVX controls (OVX rats [3]; single iv 20 μg/kg): 24 weeks | time for which cortical thickness was significantly better than in OVX controls (OVX rats [3]; single iv 20 μg/kg): 24 weeks | time for which bone loss (total BMD) was delayed significantly (OVX rats [3]; single iv injection 0.8 μg/kg 3 days before OVX): 8 weeks | time for which bone loss (total BMD) was delayed significantly (OVX rats [3]; single iv injection 4 μg/kg): 20 weeks | time for which bone loss (total BMD) was delayed significantly (OVX rats [3]; single iv injection 20 μg/kg): 24 weeks | time for which cancellous bone loss was fully prevented (letrozole-treated rats [1]; [6]): 8 weeks | time for which cancellous bone mineral density remained significantly higher than in letrozole-treated rats (letrozole-treated rats [1]; [6]): 24 weeks | time for which cortical thinning was fully prevented (letrozole-treated rats [1]; [6]): 4 weeks | week until which cortical thickness stayed significantly above the letrozole control (letrozole-treated rats [1]; letrozole-treated rats, 4 μg/kg iv, P<0.01 vs letrozole): 20 week | duration of full protection of total BMD (NS vs sham) (letrozole-treated rats [1]; letrozole-treated rats, highest dose (20 μg/kg iv)): 24 week | duration of full protection against cancellous bone loss (letrozole-treated rats [1]; [7]): 24 weeks | time for which cortical thinning was fully protected against (letrozole-treated rats [1]; [7]): 24 weeks | time for which bone loss (total BMD) was delayed (marginally but significantly) (letrozole-treated rats [1]; letrozole-treated rats, single iv 0.8 μg/kg): 4 weeks | time for which cancellous bone loss was delayed (marginally but significantly) (letrozole-treated rats [1]; letrozole-treated rats, single iv 0.8 μg/kg, P<0.05 vs letrozole): 8 weeks | protective effect on mean cortical thickness (letrozole-treated rats [1]; letrozole-treated rats, single iv 0.8 μg/kg, at 2 weeks, P<0.05 vs letrozole): marginal but significant protective effect | time for which bone loss (total BMD) was delayed significantly (letrozole-treated rats [1]; letrozole-treated rats, single iv 4 μg/kg, P<0.01 vs letrozole): 24 weeks | time for which bone loss (total BMD) was delayed significantly (letrozole-treated rats [1]; letrozole-treated rats, single iv 20 μg/kg, P<0.01 vs letrozole): 24 weeks | duration of full protection against Let-induced bone loss (letrozole-treated rats [1]; rats, dose of 20 μg/kg): at least 24 weeks | protection against cancellous bone loss, cortical thinning and reduction of bone strength induced by daily oral Let (letrozole-treated rats [1]; rats, summary in discussion): dose-dependently protects | protection against bone loss in rats treated with letrozole (letrozole-treated rats [1]; summary statement): long term protection against bone loss | ultimate bone strength of 5th lumbar vertebral body (OVX rats [4]): dose-dependently improved | ultimate bone strength of 5th lumbar vertebral body (letrozole-treated rats [2]; letrozole-treated rats, single iv 0.8, 4 or 20 μg/kg, compression): dose-dependently improved
